Assay results from publication PMC5433508 (Chemical Science, 2017).

Tested on: MDA-MB-231 cells
Assay: MTT cell viability assay, MDA-MB-231
Assay type: cell-based, human
Details: co-treatment with LYN-1604 for 24 h

In the case of `CNC(=O)c1ccccc1Oc1nc(Nc2cc(OC)c(OC)c(OC)c2)ncc1Br` [SBI-0206965], the “effect on LYN-1604-induced cell death” value is reported as “decrease LYN-1604-induced cell death”.
